Data taken from patent publication US20110318393A1, “Substituted Pyrazole Compounds” (MIIKANA THERAPEUTICS, INC., priority 2008, published 2011).

Legend:
Format in all cases: biochemical
recombinant Aurora A = biological target: T1, recombinant Aurora A (Homo sapiens, UniProt O14965); test: Aurora A (Aurora 2) inhibition assay, Z'-Lyte kinase assay; details: ATP 10 μM, 1 h; less than or equal to 100 nM
T1 construct: purchased Upstate, Lake Placid, N.Y
T1 sequence (O14965 1-403): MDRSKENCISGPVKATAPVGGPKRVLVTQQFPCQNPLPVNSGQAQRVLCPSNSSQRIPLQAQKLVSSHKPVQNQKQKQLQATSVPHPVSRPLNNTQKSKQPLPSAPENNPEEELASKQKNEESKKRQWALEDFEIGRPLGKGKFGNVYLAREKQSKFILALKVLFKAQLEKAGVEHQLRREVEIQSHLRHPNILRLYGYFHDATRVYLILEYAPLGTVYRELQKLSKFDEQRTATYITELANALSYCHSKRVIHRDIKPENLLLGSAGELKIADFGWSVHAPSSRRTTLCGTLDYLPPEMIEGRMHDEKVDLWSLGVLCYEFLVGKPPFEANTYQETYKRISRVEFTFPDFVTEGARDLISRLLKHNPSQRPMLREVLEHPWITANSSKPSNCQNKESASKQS
Protocol: Compounds were tested for their potency against recombinant Aurora A (Upstate, Lake Placid, N.Y.) using the PanVera Z′-Lyte kinase assay kit-Ser/Thr 1 peptide (Invitrogen, Carlsbad, Calif.). Assays were carried out in kinase assay buffer (50 mM HEPES, pH 7.5, 10 mM MgCl2, 5 mM EGTA, 0.05% Brij-35, 2 mM DTT). Test compounds were initially dissolved in DMSO at 100× the highest tested concentration, then serially diluted to 4× test concentrations in kinase assay buffer. Next, Aurora A (final concentration 200-500 ng/mL), Z′-Lyte Ser/Thr 1 peptide (final concentration 2 μM) and ATP (final concentration 10 μM) were added according to the manufacturer's instructions. Assays were carried out in half-area 96-well white polystyrene assay plates (Corning, Corning, N.Y.) in a final volume of 20 μl. The reaction was allowed to proceed for 1 h at room temperature in the dark, at which point the development reagent and stop reagent were added according to the manufacturer's instructions. Coumarin (Ex. 400 nm, Em. 465 nm) and fluorescein (Ex. 400 nm, Em. 565 nm) fluorescence values were measured on a SpectraFluor Plus plate reader (Tecan, Durham, N.C.). The emission ratio (coumarin/fluorescein) was determined and used to calculate the percent phosphorylation for each well. Wells containing substrate but no kinase and wells containing a phosphopeptide control were used to set 0% and 100% phosphorylation values, respectively. Typically 20-40% of the substrate was phosphorylated in wells without inhibitor. Dose-response curves of relative Aurora A activity vs. inhibitor concentration were plotted with Grafit (Erithacus Software, Horley, Surrey, UK).

[1] = biological target: T2, N-terminal His6-tagged recombinant human KDR, residues 790-end (Homo sapiens, UniProt P35968); test: KDR kinase inhibition assay (33P-ATP filter assay); details: 40 minutes, room temperature; less than or equal to 100 nM
T2 construct: recombinant human KDR, residues 790-end; His6 (N); purchased Upstate USA Inc, Charlottesville, Va
T2 sequence (P35968 790-1356 limits assumed): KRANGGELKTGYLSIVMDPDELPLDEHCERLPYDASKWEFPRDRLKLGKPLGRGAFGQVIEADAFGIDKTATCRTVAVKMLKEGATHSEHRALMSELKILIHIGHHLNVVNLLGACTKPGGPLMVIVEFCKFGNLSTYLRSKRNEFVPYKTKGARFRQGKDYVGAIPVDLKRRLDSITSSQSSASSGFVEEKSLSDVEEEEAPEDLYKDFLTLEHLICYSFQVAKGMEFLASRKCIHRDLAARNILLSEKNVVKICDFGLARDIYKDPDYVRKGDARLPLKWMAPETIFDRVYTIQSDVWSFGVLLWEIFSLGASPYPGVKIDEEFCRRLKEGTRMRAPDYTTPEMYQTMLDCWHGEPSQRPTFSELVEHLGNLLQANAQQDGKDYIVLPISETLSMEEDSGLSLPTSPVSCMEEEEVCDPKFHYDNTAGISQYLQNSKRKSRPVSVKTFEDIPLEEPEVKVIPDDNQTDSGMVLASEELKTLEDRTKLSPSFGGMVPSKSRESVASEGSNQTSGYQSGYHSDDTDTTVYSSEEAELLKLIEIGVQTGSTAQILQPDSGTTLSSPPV
Protocol: (§1) Compounds were assayed for KDR kinase inhibitory activity using N-terminal His6-tagged recombinant human KDR, residues 790-end (Upstate USA Inc, 706 Forest Street, Charlottesville, Va.). Serial dilutions of compound were assayed in a final reaction volume of 25 μL by incubating a solution of the above KDR kinase (5-10 mU), 8 mM MOPS (3-(N-morpholino)propanesulfonic acid) pH 7.0, 0.2 mM EDTA (ethylenediamine tetracetic acid), 0.33 mg/mL myelin basic protein (Upstate USA Inc, 706 Forest Street, Charlottesville, Va.), and 10 mM magnesium acetate and [γ-^33P-ATP] (specific activity of about 500 cpm/pmol, concentration as required). The reaction was initiated by the addition of the magnesium acetate and [γ-^33P-ATP] mixture. After incubation for 40 minutes at room temperature, the reaction was stopped by the addition of 5 μL of a 3% phosphoric acid solution. A 10 μL aliquote of the reaction was then spotted onto a P30 filtermat (PerkinElmer, Wellesley, Mass.) and washed three times for five minutes in 75 mM phosphoric acid and once in methanol prior to drying and scintillation counting. Inhibition of KDR activity was determined by comparison to assays that contained no inhibitor.

[2] = biological target: T3, N-terminal His-tagged human Src (Homo sapiens, UniProt P12931); test: Src kinase inhibition assay (33P-ATP filter assay); details: 40 minutes, room temperature; less than or equal to 100 nM
T3 construct: His (N); purchased Upstate USA Inc, Charlottesville, Va
T3 sequence (P12931 whole entry): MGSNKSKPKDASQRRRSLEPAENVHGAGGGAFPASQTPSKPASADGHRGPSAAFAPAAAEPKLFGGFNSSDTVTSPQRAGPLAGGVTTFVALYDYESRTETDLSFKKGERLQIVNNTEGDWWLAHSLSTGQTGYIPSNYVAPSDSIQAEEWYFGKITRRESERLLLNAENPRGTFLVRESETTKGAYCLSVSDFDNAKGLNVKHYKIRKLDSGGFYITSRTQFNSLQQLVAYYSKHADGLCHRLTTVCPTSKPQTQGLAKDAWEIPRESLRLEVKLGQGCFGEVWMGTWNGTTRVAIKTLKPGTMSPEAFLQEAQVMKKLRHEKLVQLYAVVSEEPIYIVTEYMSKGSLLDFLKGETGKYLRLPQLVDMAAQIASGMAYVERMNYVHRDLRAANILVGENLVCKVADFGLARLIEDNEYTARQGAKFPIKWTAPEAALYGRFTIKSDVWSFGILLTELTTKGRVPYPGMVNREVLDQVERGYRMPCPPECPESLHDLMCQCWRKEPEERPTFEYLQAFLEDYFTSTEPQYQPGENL
Protocol: as §1, with “Src” for “KDR”, “His-tagged” for “His6-tagged recombinant”, “Src” for “KDR, residues 790-end”, “250 μM amino acid sequence KVEKIGEGTYGVVYK” for “0.33 mg/mL myelin basic protein”

[3] = biological target: T4, N-terminal GST-tagged recombinant human Flt3, residues 564-end (Homo sapiens, UniProt P36888); test: Flt3 kinase inhibition assay (33P-ATP filter assay); details: 40 minutes, room temperature; less than or equal to 100 nM
T4 construct: recombinant human Flt3, residues 564-end; GST (N); purchased Upstate USA Inc, Charlottesville, Va
T4 sequence (P36888 564-993 limits assumed): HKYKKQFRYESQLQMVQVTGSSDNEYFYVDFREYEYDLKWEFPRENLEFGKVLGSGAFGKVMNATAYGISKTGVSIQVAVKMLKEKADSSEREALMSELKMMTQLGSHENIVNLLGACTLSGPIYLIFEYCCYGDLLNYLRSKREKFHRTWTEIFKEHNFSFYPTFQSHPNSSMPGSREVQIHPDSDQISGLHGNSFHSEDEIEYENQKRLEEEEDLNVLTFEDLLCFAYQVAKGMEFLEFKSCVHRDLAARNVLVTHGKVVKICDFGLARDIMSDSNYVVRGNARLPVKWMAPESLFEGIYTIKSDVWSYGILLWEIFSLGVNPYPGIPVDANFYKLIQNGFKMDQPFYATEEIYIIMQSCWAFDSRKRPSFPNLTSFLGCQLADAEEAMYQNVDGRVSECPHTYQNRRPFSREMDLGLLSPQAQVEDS
Protocol: as §1, with “Flt3” for “KDR”, “GST-tagged” for “His6-tagged”, “Flt3,” for “KDR,”, “564-end” for “790-end”, “50 μM amino acid sequence EAIYAAPFAKKK” for “0.33 mg/mL myelin basic protein”

Aurora B kinase = biological target: T5, Aurora B kinase (Homo sapiens, UniProt Q96GD4); test: Aurora B (Aurora 1) inhibition assay, Z'-Lyte kinase assay; details: ATP 50 μM, 16 h; less than or equal to 100 nM
T5 construct: purchased BPS Biosciences, San Diego, Calif
T5 sequence (Q96GD4 whole entry): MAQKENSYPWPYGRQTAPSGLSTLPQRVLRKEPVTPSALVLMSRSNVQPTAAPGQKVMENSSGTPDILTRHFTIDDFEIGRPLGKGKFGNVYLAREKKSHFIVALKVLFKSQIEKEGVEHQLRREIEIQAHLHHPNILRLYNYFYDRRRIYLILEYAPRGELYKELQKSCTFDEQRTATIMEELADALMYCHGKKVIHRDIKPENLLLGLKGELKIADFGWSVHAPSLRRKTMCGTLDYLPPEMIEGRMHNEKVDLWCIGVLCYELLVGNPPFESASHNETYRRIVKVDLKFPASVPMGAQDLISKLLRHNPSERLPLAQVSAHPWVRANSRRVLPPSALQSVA

Measured: IC50

Cc1cc(Nc2cc(N3CCC(N4CCOCC4)CC3)nc(/C=C/c3ccccc3)n2)n[nH]1 [Compound 7, (E)-N-(5-methyl-1H-pyrazol-3-yl)-6-(4-morpholinopiperidin-1-yl)-2-styrylpyrimidin-4-amine]
≤ 100 nM: all assays above

Cc1cc(Nc2cc(N3CC(O)(C4CC4)C3)nc(/C=C/c3ccccc3)n2)n[nH]1 [Compound 3, (E)-3-cyclopropyl-1-(6-(5-methyl-1H-pyrazol-3-ylamino)-2-styrylpyrimidin-4-yl)azetidin-3-ol]
≤ 100 nM: all assays above

Cc1cc(Nc2cc(N3CC(N4CCC(O)CC4)C3)nc(/C=C/c3ccccc3)n2)n[nH]1 [Compound 21, (E)-1-(1-(6-(5-methyl-1H-pyrazol-3-ylamino)-2-styrylpyrimidin-4-yl)azetidin-3-yl)piperidin-4-ol]
not listed: Aurora B kinase
≤ 100 nM: all other assays above

Cc1cc(Nc2cc(N3CCN(CCN4CCOCC4)CC3)nc(/C=C/c3ccccc3)n2)n[nH]1 [Compound 13, (E)-N-(5-methyl-1H-pyrazol-3-yl)-6-(4-(2-morpholinoethyl)piperazin-1-yl)-2-styrylpyrimidin-4-amine]
not listed: Aurora B kinase
≤ 100 nM: all other assays above
